Data: PMC6332004, “Transport of Twelve Coumarins from Angelicae Pubescentis Radix across a MDCK-pHaMDR Cell Monolayer—An in Vitro Model for Blood-Brain Barrier Permeability” (Molecules, 2015)
Read-outs that look alike come from different tables or passages of the source.

Legend:
[1] = Cell accumulation and total recovery of coumarins in the bidirectional transport experiment; settings: dog
Experimental: (§1) 10 mM stock solutions of test compounds were prepared in DMSO and diluted with HBSS to the desired concentrations before transport experiments. HBSS (pH 7.4) was used as a transport medium. After washing the MDCK-pHaMDR cell monolayer twice with prewarmed HBSS medium, HBSS medium was preserved to prepare samples of the calibration curves. Then the experiments were carried out by replacing the transport medium in the AP side (0.5 mL, for absorption transport) or BL side (1.5 mL, for efflux transport) with test compounds (50 µM). The plates were shaked at 55 rpm for 90 min at 37 °C in a water bath. Samples were collected from both sides of the cell monolayer, then immediately frozen, lyophilized and preserved below −20 °C. To measure the intracellular accumulation amounts of different coumarins, the cell monolayers were extracted after transport assays with 200 µL 70% MeOH (v/v) for 20 min, then centrifuged and preserved below −20 °C.
(§2) To determine the corresponding coumarins, the lyophilized permeation samples were dissolved in a suitable volume of MeOH, thoroughly vortex-mixed for 1 min and then centrifuged at 16,000× g for 20 min. An aliquot of 20 µL supernatant solution was used for HPLC assay. To measure the intracellular accumulation amount of different coumarins, the aliquots of cell extractions were determined too.
(§3) CA (Cell accumulation): the percent of the coumarins that accumulated in the cell monolayer after transport
(§4) experiment relative to the initial amount. TR (Total recovery): the percent of the total amount of the coumarins
(§5) recovered from both sides of the inserts and intracellular accumulation in MDCK-pHaMDR cell monolayer
(§6) relative to the initial amount. N.D.: not detected. The concentration of all coumarins was 50 µM.
(§7) incubation time was up to 90 min. Data are means ± S.D. (n = 6).

[2] = in vitro; settings: dog, MDCK-MDR1, pH 7.4
Experimental: as §1
(§8) An Agilent 1100 series HPLC system (Agilent Technologies, Palo Alto, CA, USA) was used with an analytical Diamonsil® C18 column (250 mm × 4.6 mm, 5 µm, Dikma, Beijing, China) equipped with a C18 guard column (8 mm × 4 mm, 5 µm, Dikma). […] The flow rate was 1.0 mL/min. Elution peaks were monitored and the peak areas were used to calculate the compound concentrations.
(§9) Papp in AP-BL or BL-AP direction of each coumarin was calculated from the following equation: (2) Papp=dQ/dt·A·C0 [cm/s] where Q is the accumulation quantity of the compound in the receiver side (μmol), dQ/dt is the linear appearance rate of the compound in the receiver side (μmol/s), C0 is the initial concentration in the donor side (μM), and A is the surface area of the membrane insert (cm^2). Data were expressed as the mean ± SD.

[3] = test system: MDCK-pHaMDR cell monolayer; assay: Cell accumulation and total recovery of coumarins in the bidirectional transport experiment; settings: 50 µM, 90 min, percent of initial amount, n = 6
Experimental: as §1, §2, §3, §4, §5, §6, §7

[4] = test system: MDCK-pHaMDR cell monolayer; settings: dog, 90 min, 50 µM, pH 7.4
Experimental: as §1, §2, §3, §4, §5, §6, §7

[5] = test system: P-gp; assay: Rh123 intracellular accumulation in MDCK-pHaMDR cells with or without verapamil; type: cell-based; settings: Rh123 10 µM
Experimental: The fluorescence at 485 nm (excitation wavelength) and 538 nm (emission wavelength) was determined on a Cary Eclipse Fluorescence spectrophotometer (Varian Inc., Palo Alto, CA, USA). To investigate intracellular accumulations of Rh123 as a probe substrate for P-gp, MDCK-pHaMDR cells were seeded on the 6 Wells plates at a density of about 1.0 × 10^5 cells/mL and grew for 48 h. Before the uptake experiments, cells were washed with PBS two times and pre-incubated with serum-free DMEM or 100 µM verapamil for 20 min. Rh123 with the final concentration of 10 µM was added, and cells were incubated with or without the presence of verapamil for 60 min at 37 °C. Then cells were washed with ice-cold PBS three times, and lysed with 0.1% (v/v) Triton X-100 for 15 min at 37 °C [33]. The fluorescence of Rh123 in cell lysates was determined as described above.

[6] = test system: P-gp; assay: in vitro; settings: dog, not told
Experimental: The P-gp expression level in the MDCK-pHaMDR cell monolayer was examined by Rh123 transport and intracellular accumulation experiments. Rh123 (10 µM) bidirectional transports with or without the presence of verapamil (100 µM) were undertaken as described above, and the lyophilized permeation samples were dissolved in a proper volume of MeOH. The fluorescence at 485 nm (excitation wavelength) and 538 nm (emission wavelength) was determined on a Cary Eclipse Fluorescence spectrophotometer (Varian Inc., Palo Alto, CA, USA).

[7] = test system: MDCK-pHaMDR cell monolayer; assay: Bidirectional transport across MDCK-pHaMDR cell monolayer (in vitro BBB model); settings: AP to BL; coumarins 50 µM, caffeine 10 µM, atenolol 200 µM; 90 min; mean ± S.D., n = 6
Experimental: as §1, §8, §9

[8] = MDCK-pHaMDR cell monolayer, pH 7.4, TR (Total recovery) AP→BL, AP→BL, 50 µM, 90 min, percent of initial amount, n = 6
[9] = MDCK-pHaMDR cell monolayer, pH 7.4, TR (Total recovery) BL→AP, BL→AP, 50 µM, 90 min, percent of initial amount, n = 6

Row | Papp A→B at 90 min [2] [×10⁻⁶ cm/s] | Papp B→A at 90 min, 50 µM [2] [×10⁻⁶ cm/s] | CA (Cell accumulation) AP→BL [3] [%] | CA (Cell accumulation) BL→AP [3] [%] | recovery at 90 min, 50 µM [1, 8] [%] | recovery at 90 min, 50 µM [1, 9] [%] | efflux ratio at 90 min, 50 µM [2] | SMILES | further results
1 | 7.29 ± 0.17 | 3.73 ± 0.33 | 5.38 ± 1.14 | 1.65 ± 0.36 | 90.2 ± 3.08 | 86.6 ± 2.89 |  | CC(C)=CCOc1c2ccoc2cc2oc(=O)ccc12 [Compound 10, isoimperatorin] | 
2 | 23.8 ± 1.44 | 20.4 ± 3.04 |  |  | 105 ± 5.15 | 95.6 ± 1.75 |  | COc1ccc2ccc(=O)oc2c1CC=C(C)C [Compound 2, osthol] | CA (Cell accumulation) AP→BL [4]: 6.96 ± 1.50%; CA (Cell accumulation) BL→AP [4]: 3.51 ± 0.68%
3 | 27.3 ± 2.35 | 26.8 ± 2.75 | 4.63 ± 0.13 | 1.79 ± 0.03 | 89.9 ± 6.49 | 94.7 ± 3.85 | 0.98 | O=c1ccc2cc3ccoc3cc2o1 [Compound 7, psoralen] | 
4 | 43.6 ± 2.13 | 37.4 ± 5.81 |  |  | 99.15 ± 0.54 | 107 ± 1.19 | 0.86 | COc1c2ccoc2cc2oc(=O)ccc12 [Compound 9, bergapten] | 

More lines, now with the values behind:

Row | SMILES | Papp A→B at 90 min [2] [×10⁻⁶ cm/s] | Papp B→A at 90 min, 50 µM [2] [×10⁻⁶ cm/s] | CA (Cell accumulation) AP→BL [3] [%] | CA (Cell accumulation) BL→AP [3] [%] | recovery at 90 min, 50 µM [1, 8] [%] | recovery at 90 min, 50 µM [1, 9] [%] | efflux ratio at 90 min, 50 µM [2] | further results
5 | COc1c2occc2cc2ccc(=O)oc12 [Compound 8, xanthotoxin] |  |  |  |  |  |  |  | recovery at 90 min, 50 µM ([1]; pH 7.4, TR (Total recovery) AP→BL, AP→BL, 50 µM, 90 min, percent of initial amount, n = 6): 95.2 ± 4.79%; recovery at 90 min, 50 µM ([1]; pH 7.4, TR (Total recovery) BL→AP, BL→AP, 50 µM, 90 min, percent of initial amount, n = 6): 88.7 ± 3.13%
6 | O=c1ccc2ccc(O)cc2o1 [Compound 1, umbelliferone] | 35.9 ± 2.28 | 32.8 ± 1.25 |  |  | 99.3 ± 1.59 | 96.7 ± 3.22 |  | 
7 | COc1cc2ccc(=O)oc2cc1O [Compound 3, scopoletin] | 37.1 ± 1.97 | 27.4 ± 3.51 |  |  | 87.5 ± 3.3 | 92.2 ± 3.16 | 0.96 | 
8 | C/C=C(/C)C(=O)OC(C)(C)[C@@H]1Cc2c(ccc3ccc(=O)oc23)O1 [Compound 11, columbianadin] | 10.4 ± 0.95 | 7.12 ± 0.12 | 21.49 ± 4.56 | 9.44 ± 1.01 | 67.6 ± 5 | 64.1 ± 3.63 |  | recovery at 90 min, 50 µM ([1]; MDCK-pHaMDR cell monolayer, pH 7.4, recovery (both sides of the insert and intracellular), both directions): 64 to 68%
9 | COC(=O)c1ccccc1-c1c2ccc(=N)cc-2oc2cc(N)ccc12 [Rh123, Rhodamine 123] |  |  |  |  |  |  |  | intracellular accumulation with verapamil relative to verapamil-absent group ([5]; 100 µM verapamil): 4.45 fold; Intracellular Accumulation Fluorescence Intensity ([5]; 60 min, without verapamil, n = 4): 34.51 ± 1.18; Papp A→B at 90 min, 10 µM ([6]; pH 7.4): 1.18 ± 0.056 ×10⁻⁶ cm/s; Papp B→A at 90 min, 10 µM ([6]; pH 7.4): 5.27 ± 0.209 ×10⁻⁶ cm/s; efflux ratio at 90 min, 10 µM ([6]; pH 7.4): 4.47 ± 0.24; efflux ratio at 90 min, 10 µM ([6]; pH 7.4, with verapamil 100 µM): 1.58
10 | Cn1c(=O)c2c(ncn2C)n(C)c1=O [caffeine, reference compound] | 43.6 |  |  |  |  |  |  | Papp AP-BL [7]: 43.58 ± 4.86 ×10^−6 cm/s
